As usually defined, the bioavailability is dose-corrected exposure relative to a reference, in per cent. The IC50 is the midpoint of a concentration-inhibition curve.

Several values for one entry are separate records, joined by “and”; a condition that tells them apart may be missing. Equal values may be shown once.

For one series, the system named is colon cancer MC-38-hPD-L1. The experiment in a line: In vivo pharmacodynamics in hPD-1 knock-in mouse colon cancer MC-38-hPD-L1 model. The settings on record: Durvalumab 20 mg/kg, IP, BIW; D19; mean ± SEM. On the set-up: species or system C57BL/6-hPD-1 mice. As to the method:
In vivo pharmacodynamics study of PD-L1 antibody Durvalumab and compound 29 used singly or in combination in hPD-1 knock-in mouse colon cancer MC-38-hPD-L1 model
Antibody: PD-L1 antibody Imfinzi (Durvalumab), 120 mg/2.4 mL (50 mg/mL), Lot: 041E17C. Manufacturer: AstraZeneca, purchased from Hong Kong Mingchuang Pharmacy Co., Ltd., stored at 2-8° C.
Experimental animals: Human PD-1 transgenic mice, strain: C57BL/6-hPD-1 mice, 6-8 weeks, weighing 18-21 grams, female, 120 mice, purchased from GemPharmatech Co., Ltd.
Human PD-L1 gene was knocked into MC-38 cells (MC-38-hPD-L1 cells), MC-38 cells was adherent cultured in vitro in DMEM medium with 10% heat-inactivated fetal bovine serum and hygromycinB (final concentration […]) at 37° C. under 5% CO2.
Passage cultivation was conducted three times a week. The cells were collected and counted at the exponential growth phase. 100 μL 1×10^6 MC-38-hPD-L1 cells suspension was inoculated into the right dorsal subcutaneous of C57BL/6-hPD-1 mice. 6 days after inoculation, 60 tumor-bearing mice with transplanted tumor volume ranging from 31.49 mm^3-110.26 mm^3 were selected, the mice were randomly divided into 6 groups, with 10 in each group, according to the experimental plan, and administration was started on the same day.
Preparation of vehicle: 800 mL sterile water was measured and added to volumertic flask. Magnetic stirring was carried out to produce vortex on the liquid surface. An aqueous solution of 10% (w/v) Cremophor RH40+20% (w/v) SBE-β-CD was obtained by slow addition of 100 g Cremophor RH40, followed by 200 g SBE-β-CD, and water to fix the solution volume to 1000 mL with fully stirring.
Preparation of Compound 29 suspension: 150.92 mg compound 29 was weighed and 12.5 […] 10% (w/v) Cremophor RH40+20% (w/v) SBE-β-CD (hereinafter referred to as vehicle) aqueous solution was added. A suspension was with a concentration of 12.0 mg/mL was obtained by fully mixing with vortexing for 2 minutes and ultrasonic treatment for 30 minutes. 5.0 mL of the suspension of compound 29 with a concentration of 12.0 mg/mL was pipetted, and 5.0 mL of vehicle was added to the suspension. The suspension with a concentration of 6.0 mg/mL was obtained by fully mixing with vortexing for 1 minute and ultrasonic treatment for 5 minutes. 2.0 mL of the suspension of compound 29 with a concentration of 12.0 mg/mL was pipetted, and 6.0 mL of vehicle was added to the suspension. The suspension with a concentration of 3.0 mg/mL was obtained by fully mixing with vortexing for 1 minute and ultrasonic treatment for 5 minutes. The suspension of compound 29 was prepared once a day.
Preparation of PD-L1 antibody: […] of Durvalumab stock solution (concentration: 50 mg/mL) was pipetted and divided into 6 portions in 5 mL sterile centrifuge tube, with 6.0 mg in each portion, then the portions were stored in a 4° C. refrigerator for late use. Before administration, 0.12 mL of stock solution (concentration: 50 mg/mL) was pipetted, 2.88 mL of 0.9% sodium chloride solution was added to the stock solution. 3 mL of the solution of Durvalumab with a final concentration 2 mg/mL was obtained by shaking slightly and fully vortexing.
1) The mice in the vehicle control group were weighed and recorded in an electronic balance according to the number. The mice in the vehicle control group were administered by oral gavage with vehicle according to the weight twice a day with a capacity of 0.1 mL/10 g. The time for administration was about 20 s for each mouse, and about 5 minutes in total for each group of 10 mice. 2) The mice in the compound 29 (30 mg/kg) group were weighed and recorded in an electronic balance according to the number. The mice in this group were administered by oral gavage with the prepared Compound 29 suspension according to the weight twice a day with a dosage of 30 mg/kg and a capacity of 0.1 mL/10 g. The time for administration was about 20 s for each mouse, and about 5 minutes in total for each group of 10 mice. […]
In the case of “Durvalumab: PD-L1 antibody Imfinzi (Durvalumab), 50 mg/mL, manufacturer AstraZeneca [reference compound]”, the “Tumor Volume” value is 341.19 ± 56.59/D19 mm^3.

The series is the same for the next values; noted with them: Durvalumab 20 mg/kg, IP, BIW; D19; vs vehicle control.
Regarding “Durvalumab: PD-L1 antibody Imfinzi (Durvalumab), 50 mg/mL, manufacturer AstraZeneca [reference compound]”, the “TGI (tumor inhibition rate)” value was 48.17% and 48.17/D19%.

Tested on in another series: not listed separately
The experiment in a line: Pharmacokinetic experiment in mice (iv and oral gavage). The series is classed as in vivo. As to conditions: mouse, whole blood; CD1 male mice; tail vein 2 mg/kg and oral gavage 10 mg/kg. From the text: Glipizide (molecular formula was C21H27N5O4S, molecular weight was 445.5 g/mol, Analytical Reagent) purchased from Sigma-Aldrich (U.S.A.), was used as the internal standard for analysis. Methanol, acetonitrile and formic acid (HPLC grade) were purchased from Sigma-Aldrich (U.S.A.), and pure water was purchased from Hangzhou Wahaha Group Co., Ltd. (Hangzhou, China). Other chemical reagents were all analytical reagents.
CD1 male mice, six per group, 6-7 weeks old, 29-31 g, were purchased from LC Laboratory Animal Co. LTD. Before the experiment, the animals should be kept for at least 3 days to adapt to the environment. Throughout the experiment, the animals were required to fast overnight, and allowed to drink water freely during the period, and the surviving animals resumed feeding 4 hours after administration.
1. The compound was formulated into a solution with a concentration of 0.4 mg/mL with 10% DMSO, 10% Solutol HS 15 and 80% Saline.
2. The above prepared solution was administered to 3 mice by tail vein injection (compound dosage was 2 mg/kg), and was administered to another 3 mice by oral gavage (compound dosage was 10 mg/kg) simultaneously.
3. Approximately 30 μL of blood was collected from each of the above 6 mice at 5 minutes, 15 minutes, 30 minutes, 1 hour, 2 hours, 4 hours, 8 hours and 24 hours after administration into the EDTA-K2 anticoagulation tube (set on wet ice), and 20 μL of blood was immediately diluted with 60 μL of water, and then put in the refrigerator at −70° C. for long-term storage until the sample was analyzed.
4. 20 μL of the above solution was transfered into a 96-well deep well sample plate, and 150 μL of glipizide internal standard acetonitrile solution (the concentration was 100 ng/mL) was added, vortexed for 10 min, and centrifuged at […] for 10 min 1 μL of the supernatant was taken for LCMSMS analysis.
5. Based on the drug concentration-time data, WinNonlin 6.4 software (USA) was used to calculate the pharmacokinetic parameters of the compound according to the non-compartment model.
`COc1cc(/C=C/c2cccc(-c3ccccc3)c2C)cc(OC)c1CN[C@@](C)(CO)C(=O)O` yielded a bioavailability of 3.89%.

With `COc1cc(/C=C/c2cccc(-c3ccccc3)c2C)cc(OC)c1CN[C@@H](CO)C(=O)O`, the bioavailability came to 3.08%. On the same count and under the same terms, for `COc1cc(/C=C/c2cccc(-c3ccccc3)c2C)cc(OC)c1CN[C@](C)(CO)C(=O)O` the value was 4.42%; for `Cc1c(/C=C/c2cc(CNC(C)(CO)C(=O)O)ccc2C(F)(F)F)cccc1-c1ccc2c(c1)OCCO2` (centres unmarked), 5.98%.

The target of a further series is T1, PD-1/PD-L1 (Homo sapiens, UniProt Q9NZQ7).
T1 construct: unspecified kit tag (tag1 or tag2, recognised by the detection antibodies); purchased CisBio 64CUS000C-1
T1 sequence (Q9NZQ7 19-238 limits assumed): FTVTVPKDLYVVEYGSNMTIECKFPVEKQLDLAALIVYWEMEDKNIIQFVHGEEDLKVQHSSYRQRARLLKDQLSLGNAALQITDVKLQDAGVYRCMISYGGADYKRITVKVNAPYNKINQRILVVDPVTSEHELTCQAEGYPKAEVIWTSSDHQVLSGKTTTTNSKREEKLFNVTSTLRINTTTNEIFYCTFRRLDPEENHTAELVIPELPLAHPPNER
The experiment in a line: Homogeneous Time-Resolved Fluorescence (HTRF) PD-1/PD-L1 binding assay. The settings on record: CisBio kit. As to the method:
Homogenouse Time-Resolved Fluorescence (HTRF) binding assay was used to determine the binding activity of the compound of the present disclosure to PD-1/PD-L1.
The purchased kit (CisBio, #64CUS000C-1) contained the reagents required for experiments such as PD-1, PD-L1, anti-tagl-Eu, Anti-tag2-XL665, Dilute Buffer and Detection Buffer.
1. The compound was formulated to 10 concentrations with a three-fold concentration gradient with 100% DMSO.
2. The solution of the compound in DMSO was added to Dilute Buffer, and mixed evenly and then transferred to a 96-well plate.
3. PD-L1 was diluted with Dilute Buffer and added to the 96-well plate above.
4. PD-1 was diluted with Dilute Buffer, then added to the 96-well plate above and incubated at room temperature for 30 minutes.
5. One portion of anti-tag1-Eu and one portion of anti-tag2-XL665 were added to Detection Buffer, mixed evenly and transferred to the 96-well plate above.
6. The mixed solution in the 96-well plate were incubated at room temperature for 1 to 24 hours.
7. HTRF values were read by Envision.
In general terms: TR-FRET usually uses a lanthanide donor and a delayed reading to cut background.
For `Cc1c(/C=C/c2cc(CN[C@@](C)(CO)C(=O)O)ccc2C(F)(F)F)cccc1-c1cccnc1` [Compound 40, (S,E)-3-hydroxy-2-methyl-2-(3-(2-methyl-3-(pyridin-3-yl)styryl)-4-(trifluoromethyl)benzylamino)propanoic Acid], the IC50 was 580 nM. Same read-out and setting: next, `Cc1c(/C=C/c2cc(CNC(C)(CO)C(=O)O)ccc2C(F)(F)F)cccc1-c1ccccc1F` (centres unmarked) [Compound 17, (E)-2-(3-(2-(2′-fluoro-2-methylbiphenyl-3-yl)vinyl)-4-(trifluoromethyl)benzylamino)-3-hydroxy-2-methylpropanoic Acid]: 20 nM; `Cc1ccc(CN[C@@](C)(CO)C(=O)O)cc1/C=C/c1cccc(-c2ccccc2)c1C` [Compound 31, (S,E)-2-(3-(2-(2-methylbiphenyl-3-yl)vinyl)-4-methylbenzylamino)-3-hydroxy-2-methylpropanoic Acid]: 41 nM. The same measure, in the same setting: next, `COc1ccc(-c2cccc(/C=C/c3cc(CNC(C)(CO)C(=O)O)ccc3C)c2C)cc1` (centres unmarked) [Compound 2, (E)-2-((3-(2-(4′-methoxy-2-methylbiphenyl-3-yl)vinyl)-4-methylbenzyl)amino)-3-hydroxy-2-methylpropanoic Acid]: 3100 nM.

For the molecule `Cc1c(/C=C/c2cc(CN[C@@](C)(CO)C(=O)O)ccc2C(F)(F)F)cccc1-c1ccc2nccn2c1` [Compound 36], the IC50 is above 10000 nM.

In turn, `Cc1c(/C=C/c2cc(CNC(C)(CO)C(=O)O)ccc2C(F)(F)F)cccc1-c1ccccc1` (centres unmarked) [Compound 5, (E)-2-(3-(2-(2-methylbiphenyl-3-yl)vinyl)-4-(trifluoromethyl)benzylamino)-3-hydroxy-2-methylpropanoic Acid] had an IC50 of 23 nM. On the same count and under the same terms, next, `Cc1c(/C=C/c2cc(CNC(C)(CO)C(=O)O)ccc2C(F)(F)F)cccc1-c1ccc(F)cc1` (centres unmarked) [Compound 6, (E)-2-(3-(2-(4′-fluoro-2-methylbiphenyl-3-yl)vinyl)-4-(trifluoromethyl)benzylamino)-3-hydroxy-2-methylpropanoic Acid]: 320 nM; `Cc1c(/C=C/c2cc(CNC(C)(CO)C(=O)O)ccc2C(F)(F)F)cccc1-c1cccc(F)c1` (centres unmarked) [Compound 3, (E)-2-(3-(2-(3′-fluoro-2-methylbiphenyl-3-yl)vinyl)-4-(trifluoromethyl)benzylamino)-3-hydroxy-2-methylpropanoic Acid]: 46 nM. The same measure, in the same setting: next, `Cc1c(CCc2cc(CNC(CO)C(=O)O)ccc2C(F)(F)F)cccc1-c1ccccc1` (centres unmarked) [Compound 18, 2-(3-(2-(2-Methylbiphenyl-3-yl)ethyl)-4-(trifluoromethyl)benzylamino)-3-hydroxypropanoic Acid]: 46 nM; `Cc1c(/C=C/c2cc(C(C)NCC(=O)O)ccc2C(F)(F)F)cccc1-c1ccccc1` (centres unmarked) [Compound 32, (E)-2-(1-(3-(2-(2-methylbiphenyl-3-yl)vinyl)-4-(trifluoromethyl)phenyl)ethylamino)acetic Acid]: 24 nM; `Cc1c(CCc2cc(CNC(C)C(=O)O)ccc2C(F)(F)F)cccc1-c1ccccc1` (centres unmarked) [Compound 22, 2-(3-(2-(2-Methylbiphenyl-3-yl)ethyl)-4-(trifluoromethyl)benzylamino) propanoic Acid]: 44 nM.

Molecule `Cc1c(/C=C/c2cc(CN[C@@](C)(CO)C(=O)O)ccc2C(F)(F)F)cccc1-c1ccccn1` [Compound 39, (S,E)-3-hydroxy-2-methyl-2-(3-(2-methyl-3-(pyridin-2-yl)styryl)-4-(trifluoromethyl)benzylamino)propanoic Acid] yielded an IC50 of 2200 nM. Same read-out and setting: for `Cc1c(/C=C/c2cc(CN[C@@](C)(CO)C(=O)O)ccc2C(F)(F)F)cccc1-c1cnccn1` [Compound 41, (S,E)-3-hydroxy-2-methyl-2-(3-(2-methyl-3-(pyrazin-2-yl)styryl)-4-(trifluoromethyl)benzylamino)propanoic Acid] the value was 540 nM; for `C[C@](CO)(NCc1ccc(C(F)(F)F)c(/C=C/c2cccc(-c3ccccc3)c2F)c1)C(=O)O` [Compound 34, (R,E)-2-(3-(2-(2-fluorobiphenyl-3-yl)vinyl)-4-(trifluoromethyl)benzylamino)-3-hydroxy-2-methylpropanoic Acid], 180 nM.

The values are drawn from patent publication US20220168268A1, “SMALL-MOLECULE INHIBITOR OF PD-1/PD-L1, PHARMACEUTICAL COMPOSITION THEREOF WITH PD-L1 ANTIBODY, AND APPLICATION OF SAME” (Guangzhou Maxinovel Pharmaceuticals Co., Ltd., priority 2019, published 2022).
